The test system of series [1] is Male WistarF/Han (WF) rats. The experiment in a line: 1 h and 12 h food-intake after i.c.v. P32/98 and NPY (Example 3). To be noted: i.c.v. P32/98 5 pmol-500 nmol, NPY 50 pmol-1.6 nmol; dark cycle. The class given is in vivo, rat. The method, then: (§1) Animals. Male WistarF/Han (WF) rats (Central Animal Laboratory, Hannover Medical School, Hannover, Germany, weighing 330-370 g, were housed in a sound-proof, temperature controlled (24.0±0.5° C.) room under specific pathogen free conditions with a 12/12 h dark/light cycle (lights on at 07.00 with illumination level of 80 Lux). Food (Altromin lab chow pellets) and tap water were available ad libitum. Under ketamine/xylasine (100/5 mg/kg, i.p.) anesthesia, the rats were fixed in a Kopf stereotaxic frame and implanted with cannulae (Plastic One, Inc., Roanoke, Va., USA) above the lateral ventricle. All research and animal care procedures were approved by the Lower Saxony district government (Hannover, Germany) and followed principles described in the European Community's Council Directive of 24 Nov. 1986 (86/609/EEC).
Surgery and i.c.v. application. For surgery, rats were anesthetized and prepared with i.c.v. cannulae (coordinates: A: −0.7 mm caudal, L: 1.4 mm lateral to bregma; and V3.2 mm ventral to the skull surface; tooth bar +3.0 above ear bars) using standard stereotaxic procedures as described in detail elsewhere (von Hörsten et al., 1998a, b, c). After a 7-day recovery period, successful ventricle cannulation was confirmed by an angiotensin drinking response (von Hörsten et al., 1998a). Rats showing a positive drinking response (n=59) were then habituated to experimental handling by daily sham injections for seven days.
Animals were randomly divided into two sets of four experimental groups (n=5-6/group), which completed different consecutive SI test of anxiety. […] The time spent in active social interaction (SI-time), 1 h and 12 h food-intake were measured. […]
Statistical analysis. Data from repeated observations (food intake) were analyzed by two-way analyses of variance for repeated measures (ANOVA) (factors: “substrain” and “food intake” as repeated measure). Data obtained from simple measures such as DPIV activity or SI time were analyzed by one-way (factor: “substrain”) ANOVA. […]

The test system of series [2] is Male WistarF/Han (WF) rats. Description: Social interaction (SI) test with Y1R antagonist BIBP3226, P32/98 and NPY (Example 4). Format: in vivo, rat. The protocol: as §1, with “330±31 g±SD,” for “330-370 g,”
(§2) Surgery and i.c.v. application. […]
(§3) Animals were randomly divided into eight experimental groups (n=6-8/group), which completed one SI test of anxiety: (1) aCSF+aCSF+aCSF; (2) BIBP+aCSF+aCSF; (3) aCSF+P32/98+aCSF; (4) BIBP+P32/98+aCSF; (5) aCSF+aCSF+NPY; (6) BIBP+aCSF+NPY; (7) aCSF+[…]+NPY; (8) BIBP+P32/98+NPY. […] The time spent in active social interaction (SI-time), 1 h, and 12 h food-intake were measured. […]
Social interaction (SI) test. […] Behavior was monitored using a video camera placed above the field inside the testing/isolation box. The SI behavior of both rats was recorded on-line from a monitor placed outside on top of the box. The following parameters were scored by an observer (HPN) unaware of the substrain of rats: duration of time spent in sniffing, following, crawling under and over other rats, but not passive body contact (resting, sleeping). […]
(§4) Statistical analysis. Data obtained from the measures SI time and 1 h food intake were analyzed by one-way (factor: “treatment”) ANOVA. […]

The target of another series is T1, dipeptidyl peptidase IV (Homo sapiens, UniProt P27487).
T1 construct: from tissue; host or cells: human serum
T1 sequence (P27487 39-766 limits assumed): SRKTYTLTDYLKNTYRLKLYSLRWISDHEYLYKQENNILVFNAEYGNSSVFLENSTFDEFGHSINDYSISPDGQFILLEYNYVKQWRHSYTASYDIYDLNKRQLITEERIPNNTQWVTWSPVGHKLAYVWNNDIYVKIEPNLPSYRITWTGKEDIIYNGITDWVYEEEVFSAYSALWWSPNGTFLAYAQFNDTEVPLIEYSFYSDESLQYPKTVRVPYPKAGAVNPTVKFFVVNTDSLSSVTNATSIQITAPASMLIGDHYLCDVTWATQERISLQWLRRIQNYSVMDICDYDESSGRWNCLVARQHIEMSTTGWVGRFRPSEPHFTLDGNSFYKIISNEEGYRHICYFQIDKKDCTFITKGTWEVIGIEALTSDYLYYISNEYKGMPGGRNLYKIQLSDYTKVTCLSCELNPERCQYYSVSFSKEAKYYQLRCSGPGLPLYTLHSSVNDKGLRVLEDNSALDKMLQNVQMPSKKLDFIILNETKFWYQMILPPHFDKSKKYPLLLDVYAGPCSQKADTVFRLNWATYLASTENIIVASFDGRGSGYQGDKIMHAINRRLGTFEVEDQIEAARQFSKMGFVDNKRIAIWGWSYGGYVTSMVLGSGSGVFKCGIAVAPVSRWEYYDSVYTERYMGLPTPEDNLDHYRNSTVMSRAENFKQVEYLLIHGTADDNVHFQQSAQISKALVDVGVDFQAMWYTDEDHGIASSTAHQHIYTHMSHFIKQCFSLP
To be noted: human serum incubated with neuropeptide Y or peptide YY; cited from earlier work.

In series [3] the test system is Male WistarF/Han (WF) rats. Description: 1 h food-intake with Y1R antagonist BIBP3226, P32/98 and NPY (Example 4). Particulars: i.c.v. BIBP3226 100 nmol. The class given is in vivo, rat. The method, then: as §1, with “330±31 g±SD,” for “330-370 g,”
as §2, §3, §4

The conditions of series [4]: i.c.v. injection; cited from earlier work.
For a further series, the system named is rats. To be noted: administered into the dorsal periaqueductal gray matter; cited from earlier work.

With “Rat neuropeptide Y1-36 [NPY, reference compound]”, the “amount of food eaten within 1 h” value in series [1] is given as ““u-shaped” dose-dependent feeding effect”. Besides, the “SI-time, NPY alone” value in series [2] (i.c.v. 0.8 nmol) is “anxiolytic-like effect”.

Take `NCCCC[C@H](N)C(=O)N1CCCC1` [Lys-pyrrolidine]: the “formation of Tyr-Pro in serum” value on dipeptidyl peptidase IV was “blocked”.

Take `NC(N)=NCCC[C@@H](NC(=O)C(c1ccccc1)c1ccccc1)C(=O)NCc1ccc(O)cc1` [BIBP3226]: the “effect of Y1 receptor antagonist pre-treatment on P32/98-induced potentiation of NPY anxiolysis (SI behavior)” value in series [2] (i.c.v. BIBP3226 100 nmol, P32/98 50 nmol, NPY 0.8 nmol) is “can block”. For the same compound, the “effect of Y1 R blockade on 1 h feeding effects” value in series [3] was “only partly affected”. Besides, in series [4], the “anxiety-related behavior in the elevated plus-maze test” value is reported as “anxiogenic-like effects” and the “locomotor effect in the elevated plus-maze test” value was “without any locomotor deficit”. The “time spent in active social interaction” value in the series with rats is “decreased”.

With Ile-Pro-Ile [diprotin A], on dipeptidyl peptidase IV, the “formation of Tyr-Pro in serum” value is “blocked”.

Source of the values: US8168199B2, “Dipeptidyl peptidase IV inhibitors for the treatment of schizophrenia and depression” (priority 2000, dated 2012).
